Consider one sequence from PMC9046087, “Structural basis of tethered agonism of the adhesion GPCRs ADGRD1 and ADGRF1” (Nature, 2022).

Experiment [1] deals with T1, ADGRF1 (Homo sapiens, UniProt Q5T601, K791A).
T1 construct: Flag (N); expressed in transfected cells; host or cells: HEK293F
T1 sequence (Q5T601 20-910 K791A): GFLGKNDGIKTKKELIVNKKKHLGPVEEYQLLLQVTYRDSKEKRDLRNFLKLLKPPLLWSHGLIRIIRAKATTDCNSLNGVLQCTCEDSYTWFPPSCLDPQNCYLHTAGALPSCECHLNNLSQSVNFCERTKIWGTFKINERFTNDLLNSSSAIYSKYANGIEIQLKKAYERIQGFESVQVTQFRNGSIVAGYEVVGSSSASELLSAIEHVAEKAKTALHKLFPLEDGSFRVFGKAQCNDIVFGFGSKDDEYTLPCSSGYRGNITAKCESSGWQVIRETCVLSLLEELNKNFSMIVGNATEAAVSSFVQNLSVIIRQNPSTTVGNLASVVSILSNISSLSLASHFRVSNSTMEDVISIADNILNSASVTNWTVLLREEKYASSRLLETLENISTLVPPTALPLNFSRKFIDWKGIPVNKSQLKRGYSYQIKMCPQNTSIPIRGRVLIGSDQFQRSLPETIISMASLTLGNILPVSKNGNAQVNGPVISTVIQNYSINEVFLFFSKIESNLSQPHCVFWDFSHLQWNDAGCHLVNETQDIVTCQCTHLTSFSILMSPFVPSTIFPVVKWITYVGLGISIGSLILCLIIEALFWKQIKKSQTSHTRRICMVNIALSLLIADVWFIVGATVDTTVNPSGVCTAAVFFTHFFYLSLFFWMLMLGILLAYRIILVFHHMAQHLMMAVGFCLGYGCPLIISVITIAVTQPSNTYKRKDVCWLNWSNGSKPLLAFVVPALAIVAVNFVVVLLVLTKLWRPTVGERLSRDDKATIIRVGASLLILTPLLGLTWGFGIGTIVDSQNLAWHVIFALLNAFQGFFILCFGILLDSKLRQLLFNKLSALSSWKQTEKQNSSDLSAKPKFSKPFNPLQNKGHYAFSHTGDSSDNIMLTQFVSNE
Briefly: BRET assay using TRUPATH biosensors, Gs activation of ADGRF1. The class given is cell-based. Conditions: Gs, ADGRF1 K791^6.40bA, n = 3. The procedure: (§1) To study the synthetic stalk peptide-induced G protein activation of ADGRD1 and ADGRF1, a BRET assay using TRUPATH biosensors was conducted to measure the proximal interaction between RLuc8 fused to the Gα subunit and GFP2 fused to the Gγ subunit. The TRUPATH suite of biosensors was obtained from Addgene (Addgene kit no. 1000000163) as a gift from B. Roth, including GαsS-RLuc8, Gαi1-RLuc8, Gβ3 and Gγ9-GFP2 as previously described.
(§2) The wild-type or mutant ADGRD1 and ADGRF1 were transiently co-transfected with plasmids encoding Gα-RLuc8 (GαsS-RLuc8 for Gs activation assay; Gαi1-RLuc8 for Gi activation assay), Gβ3 and Gγ9-GFP2 at a ratio of 2:1:1:1 (receptor plasmid, 800 ng; G protein subunit plasmids, 400 ng for each) in 2 ml HEK293F cells at a density of 1.2 × 10^6 cells per ml. Cell cultivation and receptor surface expression measurement were performed as described above. The cells were plated into 96-well white plates (40,000 cells per well) in 60 μl of assay buffer and incubated at 37 °C for 30 min. Then 10 μl of freshly prepared 50 μM coelenterazine 400a (Nanolight Technologies) was added. […] The cells were stimulated with 30 μl of synthetic stalk peptide at different concentrations and the BRET signals were monitored continuously five times. The last measurements were used in data analysis. The BRET ratios were calculated as the ratio of the GFP2 emission to RLuc8 emission.
Background: Bioluminescence resonance energy transfer reports proximity on the nanometre scale.

Experiment [2] addresses T2, ADGRF1 (Homo sapiens, UniProt Q5T601, R623A).
T2 construct: Flag (N); expressed in transfected cells; host or cells: HEK293F
T2 sequence (Q5T601 20-910 R623A): T1 sequence (Q5T601 20-910 K791A) with R604A, A772K
The experiment is described as above. The class given is cell-based. Conditions: Gs, ADGRF1 R623^2.46bA, n = 3. The procedure: as §1, §2

[3] abbreviates: read-out: pEC50 (mean ± s.e.m.) (converted).

Changes are numbered by the printed parent chain. Ends that are not written are not given here.

TSFSILMSPFVP [pF1]: the “Emax (mean ± s.e.m.)” value at ADGRF1 [1] is listed as 79 ± 13 % of WT; at ADGRF1 [2], 57 ± 10 % of WT. Also, the EC50 was 912 nM on ADGRF1 [1] (setting [3]) and 148 nM at ADGRF1 [2] (setting [3]).
